Data as given in patent publication US12285407B2, “Bis-indolylmethane derivatives and uses thereof” (The University of The West Indies, priority 2018, dated 2025).

Legend:
[1] = tested on: Bacillus cereus ATCC 14579; assay: Broth microdilution MIC of SP-BIMs; assay type: cell-based; conditions: ATCC14579, SP-BIM alone, read-out: MIC Bacillus cereus ATCC 14579
[2] = tested on: Enterococcus faecium ATCC 19434; assay: Broth microdilution MIC of SP-BIMs; assay type: cell-based; conditions: ATCC19434, SP-BIM alone, read-out: MIC Enterococcus faecium ATCC 19434
[3] = tested on: Streptococcus pyogenes ATCC 19615; assay: Broth microdilution MIC of SP-BIMs; assay type: cell-based; conditions: ATCC19615, SP-BIM alone, read-out: MIC Streptococcus pyogenes ATCC 19615
[4] = tested on: Pseudomonas aeruginosa ATCC 27853; assay: Broth microdilution MIC of SP-BIMs; assay type: cell-based; conditions: ATCC27853, SP-BIM alone, read-out: MIC Pseudomonas aeruginosa ATCC 27853
[5] = tested on: Klebsiella pneumoniae ATCC 49472; assay: Broth microdilution MIC of SP-BIMs; assay type: cell-based; conditions: ATCC49472, SP-BIM alone, read-out: MIC Klebisella pneumoniae ATCC 49472
[6] = tested on: Salmonella typhimurium ATCC 14028; assay: Broth microdilution MIC of SP-BIMs; assay type: cell-based; conditions: Salmonella enterica, read-out: MIC Salmonella tvpkimurium ATCC 14028
From the text: Reference microorganisms used in this study included: Bacillus cereus (American Type Culture Collection (ATCC) No. 14579), Streptococcus pyogenes (ATCC No. 19615), Staphylococcus aureus (ATCC No. 12600), Enterococcus faecium (ATCC No. 19434), Corynebacterium diphtheriae (ATCC No. 27010), Escherichia coli (ATCC No. 35218), Salmonella typhimurium (ATCC No. 14028), Pseudomonas aeruginosa (ATCC No. 27853), Klebsiella pneumoniae (ATCC No. 49472), and Candida albicans (ATCC No. 22972).
Prior to each experiment, cultures were streaked onto clean BHI agar plates and incubated at 35° C. for 24 hours. Colonies of the respective cultures were selected and inoculated in phosphate buffer saline (pH 7.5) to a 0.5 McFarland turbidity standard (equivalent to 10^8 CFU mL^−1). The bacterial suspension was then diluted 1:100 in cation adjusted Mueller Hinton Broth (ca-MHB) (Oxoid Ltd, Basingstoke, Hampshire, England).
Stock solutions (50 mg mL^−1) of the SP-BIM test compounds were prepared in DMSO and stored at 4° C. Working preparations of each compound was made up to 1 mg/mL in sterile deionized water with a final DMSO concentration of 10%.
To assess the antibiotic properties of the library of SP-BIMs, the broth microdilution assay was performed in 96-well microplates according to the Clinical and Laboratory Standards Institute 2014 Guidelines (CLSI 2014). The broth microdilution assay was used to determine the minimum inhibitory concentration (MIC). […] Bacterial cells (˜10^6 CFU mL^−1) were inoculated into cation adjusted-Mueller Hinton broth containing the test compound in a twofold serial dilution ranging between 250 μg mL^−1 and 0.02 μg mL^−1. Plates were incubated at 35° C. for 18 hours after which 50 μL of 5% resazurin solution was added to each well. Resazurin is a blue dye which, upon reduction by living cells, turns to a pink resorufin product. Plates were shaken for 1 hour after the addition of the dye. The MIC was recorded as the well with the lowest concentration of test compound where no color change was observed.

[7] = tested on: Candida albicans ATCC 22972; assay: Broth microdilution MIC of SP-BIMs; assay type: cell-based; conditions: ATCC22972, SP-BIM alone, read-out: MIC Candida albicans ATCC 22972
[8] = tested on: Staphylococcus aureus ATCC 12600; assay: Broth microdilution MIC of SP-BIMs; assay type: cell-based; conditions: ATCC12600, SP-BIM alone, read-out: MIC Staphylococcus aureus ATCC 12600
sheep erythrocyte = assay: Hemotoxicity (hemolysis assay); assay type: cell-based; conditions: 2% sheep erythrocyte solution; SP-BIMs 6, 11 and 18 at concentrations between 125-16 μg mL^−1
Procedure: Hemotoxicity of the SP-BIMs were assessed following Wauford, “Hemolysis Assay”, protocols.io/view/hemolysis-assay-fxkbpkw (2016). Briefly, twofold serial dilutions of each test SP-BIM were added to 2% sheep erythrocyte solution and incubated for 30 minutes at 37° C. Samples were centrifuged at 2500 g for 5 minutes and the absorbance of the supernatants measured at 541 nm. Values were represented as percent hemolysis using freeze thaw cells as 100% lysis.

[9] = tested on: Escherichia coli ATCC 35218; assay: Broth microdilution MIC of SP-BIMs; assay type: cell-based; conditions: ATCC35218, SP-BIM alone, read-out: MIC Escherichia coli ATCC 35218
[10] = tested on: Corynebacterium diphtheriae ATCC 27010; assay: Broth microdilution MIC of SP-BIMs; assay type: cell-based; conditions: ATCC27010, SP-BIM alone, read-out: MIC Corynebacterium diphtheriae ATCC 27010
Streptococcus pneumoniae [11] = assay: Adjuvant broth microdilution (antibiotic MIC with SP-BIM at 50 μg/mL); assay type: cell-based; conditions: Streptococcus pneumoniae, Streptococcus pneumonia, SP-BIM at 50 μg mL^−1
Gram-negative bacteria = assay: Adjuvant broth microdilution; assay type: cell-based; conditions: SP-BIM at 50 μg mL^−1
Procedure: To each well, the SP-BIM to be tested was added to a final concentration of 50 μg mL^−1. […] SP-BIMs were assessed as potential adjuvants based on their ability to reduce the MIC of the antibiotic against respective pathogen.

Klebsiella pneumoniae = assay: Checkerboard synergy (FICI) of antibiotics with SP-BIM; assay type: cell-based; conditions: SP-BIM 9 alone, one value per antibiotic's checkerboard, read-out: MIC SP-BIM 9 only
MRSA HS 10132 = assay: Systemic non-lethal MRSA infection in mice (organ MRSA load); assay type: in vivo
Streptococcus pneumoniae [12] = assay: Checkerboard synergy (FICI) of antibiotics with SP-BIM; assay type: cell-based; conditions: Streptococcus pneumoniae
Escherichia coli = assay: as above; conditions: read-out: MIC SP-BIM 9 only, Escherichia coli, SP-BIM 9 alone, one value per antibiotic's checkerboard
[13] = tested on: reference pathogen strains; assay: Checkerboard synergy study, summary over pathogens; assay type: cell-based; conditions: Gram-positive pathogens
Bacillus cereus = assay: Checkerboard synergy (FICI) of antibiotics with SP-BIM; assay type: cell-based; conditions: SP-BIM 9 alone, one value per antibiotic's checkerboard, read-out: MIC SP-BIM 9 only
Enterococcus faecium = assay: as above; assay type: cell-based
Staphylococcus aureus = assay: as above; assay type: cell-based
Pseudomonas aeruginosa = assay: Rescue concentrations of SP-BIM that reactivate antibiotic; assay type: cell-based; conditions: P. aeruginosa
[14] = read-out: MIC of Kanamvcin with SP-BIM
[15] = read-out: MIC of Vancomvcin with SP-BIM
[16] = ampicillin and SP-BIM 9 at 5 mg kg^−1
[17] = ampicillin and SP-BIM 9 at 10 mg kg^−1
[18] = MRSA, checkerboard with SP-BIM 9

## O=Cc1cccc(C(c2c[nH]c3ccccc23)c2c[nH]c3ccccc23)c1 [SP-BIM 6, 3-(di(1H-indol-3-yl)methyl)benzaldehyde]
[1]
  MIC: > 250 µg/mL
[2]
  MIC: > 250 µg/mL
[3]
  MIC: > 250 µg/mL
[4]
  MIC: 250 µg/mL
[5]
  MIC: > 250 µg/mL
[6]
  MIC: 250 µg/mL
[7]
  MIC: 250 µg/mL
[8]
  MIC: > 250 µg/mL
Sheep erythrocyte
  hemotoxicity: very hemotoxic
[9]
  MIC: > 250 µg/mL
[10]
  MIC: > 250 µg/mL
Streptococcus pneumoniae [11]; [14]
  MIC: 4 µg/mL
Streptococcus pneumoniae [11]; [15]
  MIC: 0.5 µg/mL
Gram-negative bacteria
  potentiating activity for Gram-negative bacteria: No potentiating activity was observed

## Oc1cccc(C(c2c[nH]c3ccccc23)c2c[nH]c3ccccc23)c1 [SP-BIM 9, 3-(di(1H-indol-3-yl)methyl)phenol]
[1]
  MIC: > 250 µg/mL
Klebsiella pneumoniae
  MIC: ≥ 250 µg/mL
MRSA HS 10132; SP-BIM 9 only 5 mg kg^−1
  MRSA counts in the liver: 3911 CFU g^−1
  MRSA load in the spleen: 7327 CFU g^−1
MRSA HS 10132; SP-BIM 9 only 10 mg kg^−1
  MRSA counts in the liver: 2861 CFU g^−1
  MRSA load in the spleen: 5800 CFU g^−1
MRSA HS 10132; [16]
  MRSA counts in the liver: 167 CFU g^−1
  MRSA load in the spleen: 288 CFU g^−1
MRSA HS 10132; [17]
  MRSA counts in the liver: 189 CFU g^−1
  MRSA load in the spleen: 211 CFU g^−1
[2]
  MIC: > 250 µg/mL
Streptococcus pneumoniae [12]; Streptococcus pneumonia (title: Streptococcus pyogenes), SP-BIM 9 alone, one value per antibiotic's checkerboard, read-out: MIC SP-BIM 9 only
  MIC: > 250 µg/mL
Streptococcus pneumoniae [12]; checkerboard with SP-BIM 9
  effect on MIC of erythromycin: no effect was observed
  lowering of the MIC of the antibiotics: at least 4 fold
[3]
  MIC: > 250 µg/mL
[4]
  MIC: 250 µg/mL
[5]
  MIC: > 250 µg/mL
Escherichia coli
  MIC: ≥ 250 µg/mL
[13]
  FICI with most of the antibiotics: ≤ 0.5
[6]
  MIC: 250 µg/mL
Bacillus cereus
  MIC: > 250 µg/mL
[7]
  MIC: 250 µg/mL
[8]
  MIC: > 250 µg/mL
[9]
  MIC: > 250 µg/mL
[10]
  MIC: > 250 µg/mL
Enterococcus faecium; Enterococcus faecium strain highly resistant to vancomycin
  MIC of vancomycin with 63 μg mL^−1 SP-BIM 9: reduced to susceptible levels
Enterococcus faecium; Enterococcus faecium, SP-BIM 9 alone, one value per antibiotic's checkerboard, read-out: MIC SP-BIM 9 only
  MIC: ≥ 250 µg/mL
Staphylococcus aureus; MRSA, checkerboard
  MIC of aztreonam in combination with 32 μg mL^−1 of SP-BIM 9: 8 µg/mL
Staphylococcus aureus; [18]
  effect on MIC of trimethoprim: an increase in the MIC was observed
  reduction of MICs of all the antibiotics except trimethoprim: at least 4 fold
Staphylococcus aureus; Staphylococcus aureus, SP-BIM 9 alone, one value per antibiotic's checkerboard, read-out: MIC SP-BIM 9 only
  MIC: > 250 µg/mL
Streptococcus pneumoniae [11]; [14]
  MIC: 4 µg/mL
Streptococcus pneumoniae [11]; [15]
  MIC: 0.2 µg/mL

## Nc1ccc(C(c2c[nH]c3ccccc23)c2c[nH]c3ccccc23)cc1 [SP-BIM 10, 4-(di(1H-indol-3-yl)methyl)aniline]
[1]
  MIC: > 250 µg/mL
[2]
  MIC: > 250 µg/mL
[3]
  MIC: > 250 µg/mL
[4]
  MIC: 250 µg/mL
[5]
  MIC: > 250 µg/mL
[6]
  MIC: 250 µg/mL
[7]
  MIC: 250 µg/mL
[8]
  MIC: > 250 µg/mL
[9]
  MIC: > 250 µg/mL
[10]
  MIC: > 250 µg/mL
Streptococcus pneumoniae [11]; [14]
  MIC: 4 µg/mL
Streptococcus pneumoniae [11]; [15]
  MIC: 0.5 µg/mL
Gram-negative bacteria
  potentiating activity for Gram-negative bacteria: No potentiating activity was observed

## Oc1ccccc1C(c1c[nH]c2ccccc12)c1c[nH]c2ccccc12 [SP-BIM 11, bis(indol-3-yl)-2-hydroxyphenylmethane]
[1]
  MIC: > 250 µg/mL
[2]
  MIC: > 250 µg/mL
[3]
  MIC: > 250 µg/mL
[4]
  MIC: 250 µg/mL
[5]
  MIC: > 250 µg/mL
[6]
  MIC: 250 µg/mL
[7]
  MIC: 250 µg/mL
[8]
  MIC: > 250 µg/mL
Sheep erythrocyte
  hemotoxicity: very hemotoxic
[9]
  MIC: > 250 µg/mL
[10]
  MIC: > 250 µg/mL
Streptococcus pneumoniae [11]; [14]
  MIC: 125 µg/mL
Streptococcus pneumoniae [11]; [15]
  MIC: 1 µg/mL

## Oc1cc(Br)ccc1C(c1c[nH]c2ccccc12)c1c[nH]c2ccccc12 [SP-BIM 15, 5-bromo-2-(di(1H-indol-3-yl)methyl)phenol]
[1]
  MIC: 125 µg/mL
[2]
  MIC: 125 µg/mL
[3]
  MIC: 125 µg/mL
[4]
  MIC: 250 µg/mL
[5]
  MIC: > 250 µg/mL
[6]
  MIC: 250 µg/mL
[7]
  MIC: 250 µg/mL
[8]
  MIC: > 250 µg/mL
[9]
  MIC: > 250 µg/mL
[10]
  MIC: > 250 µg/mL
Streptococcus pneumoniae [11]; [14]
  MIC: 4 µg/mL
Streptococcus pneumoniae [11]; [15]
  MIC: 0.2 µg/mL
Gram-negative bacteria
  potentiating activity for Gram-negative bacteria: No potentiating activity was observed

## COc1ccc(C(c2c[nH]c3ccccc23)c2c[nH]c3ccccc23)cc1 [SP-BIM 18, bis(indol-3-yl)-4-methoxyphenylmethane]
[1]
  MIC: > 250 µg/mL
[2]
  MIC: > 250 µg/mL
[3]
  MIC: > 250 µg/mL
[4]
  MIC: 250 µg/mL
[5]
  MIC: > 250 µg/mL
[6]
  MIC: 250 µg/mL
[7]
  MIC: 250 µg/mL
[8]
  MIC: > 250 µg/mL
Sheep erythrocyte
  hemotoxicity: very hemotoxic
[9]
  MIC: > 250 µg/mL
[10]
  MIC: > 250 µg/mL
Streptococcus pneumoniae [11]; [14]
  MIC: 125 µg/mL
Streptococcus pneumoniae [11]; [15]
  MIC: 1 µg/mL

## Oc1ccc2c(C(c3ccc(Br)cc3)c3c[nH]c4cc(O)ccc34)c[nH]c2c1 [SP-BIM 23, 3,3′-((4-bromophenyl)methylene)bis(1H-indol-6-ol)]
Pseudomonas aeruginosa
  MIC of chloramphenicol in combination with 64 μg/mL SP-BIM 23: 4 µg/mL
Pseudomonas aeruginosa; Pseudomonas aeruginosa, agent alone, read-out: MIC (single agent)
  MIC: > 250 µg/mL
